Data on nine compounds can be found in ChEMBL document CHEMBL1201862, “PubChem BioAssay data set” (2004).

Some test systems named below: SN12C; NCI-H522; MDA-N; HOP-62; UACC-62; HOP-92; HCC 2998; PC-3; LOX IMVI; KM12; COLO 205; ACHN; OVCAR-3; OVCAR-5; SF-539; K562.
Common to all, as to experiment: NCI anticancer screen, dose series, 48 h

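Protocol summary: plate cells (96-well), add compound at 5 concentrations, incubate 48 h, interpolate endpoints linearly. At the GI50, growth is halved.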 Calls of active or inactive are those of the source. Rule as the data show it: active = GI50 up to about 1.1 µM and inactive = higher.

As for `CCCCn1cnc2c(SC)ncnc21`, the GI50 in the experiment with SN12C, with NCI-H522, in the experiment with MDA-N, in the experiment with HOP-62, with UACC-62 and in the experiment on HOP-92 was > 100 µM (inactive) throughout. For the same compound, the GI50 in the experiment on HCC 2998, with PC-3, in the experiment on LOX IMVI, in the experiment on KM12, in the experiment with COLO 205 and with ACHN was > 100 µM (inactive) in each case. The GI50 in the experiment with OVCAR-3 is > 100 µM (inactive); in the experiment on OVCAR-5 it was > 100 µM (inactive); in the experiment with SF-539, > 100 µM (inactive); with K562 it was 44.8 µM (inactive).

Take `CCOC(=O)C(NC(=O)CC)(N1CCN(c2cc3c(cc2F)c(=O)c(C(=O)O)cn3C2CC2)CC1)C(F)(F)F` (centres undefined): the GI50 with SN12C was > 100 µM (inactive); with NCI-H522, > 100 µM (inactive); in the experiment on MDA-N it was > 100 µM (inactive); with HOP-62, > 100 µM (inactive); in the experiment on UACC-62 it was > 100 µM (inactive); with HOP-92 it was 70.8 µM (inactive). Besides, the GI50 in the experiment with HCC 2998, in the experiment with PC-3, in the experiment on LOX IMVI, in the experiment with KM12, with COLO 205 and in the experiment with ACHN was > 100 µM (inactive) in each case. The GI50 with OVCAR-3, with OVCAR-5, in the experiment on SF-539 and in the experiment with K562 was > 100 µM (inactive) throughout.

As to `CN(C)CCCc1cccc2[nH]c3c(c12)CN(C)CC3`, the GI50 was > 100 µM (inactive) in the experiment with SN12C; > 100 µM (inactive) in the experiment on NCI-H522; > 100 µM (inactive) with MDA-N; 56.5 µM (inactive) in the experiment with HOP-62; > 100 µM (inactive) in the experiment with UACC-62; > 100 µM (inactive) in the experiment with HOP-92. The GI50 in the experiment with HCC 2998 is > 100 µM (inactive); in the experiment with PC-3 it was 67.1 µM (inactive); with LOX IMVI it was 30.1 µM (inactive); with KM12 it was > 100 µM (inactive); with COLO 205 it was 63.4 µM (inactive); in the experiment with ACHN it was > 100 µM (inactive). Besides, the GI50 in the experiment with OVCAR-3 is > 100 µM (inactive); with OVCAR-5, > 100 µM (inactive); in the experiment with SF-539, 28.8 µM (inactive); with K562, 76.7 µM (inactive).

As for `CC(=O)Oc1ccc(/C=C/C(=O)NCC(NC(=O)/C=C/c2ccc(OC(C)=O)c(OC(C)=O)c2)C(=O)O)cc1OC(C)=O` (centres undefined), the GI50 in the experiment on SN12C is > 100 µM (inactive); with NCI-H522 it was 46.8 µM (inactive); in the experiment with MDA-N, > 100 µM (inactive); in the experiment on HOP-62, > 100 µM (inactive); in the experiment on UACC-62, > 100 µM (inactive); in the experiment with HOP-92, > 100 µM (inactive). The GI50 was > 100 µM (inactive) with HCC 2998; > 100 µM (inactive) in the experiment with PC-3; 97.3 µM (inactive) in the experiment with LOX IMVI; > 100 µM (inactive) in the experiment with KM12; > 100 µM (inactive) with COLO 205; > 100 µM (inactive) in the experiment with ACHN. For the same compound, the GI50 in the experiment with OVCAR-3 is > 100 µM (inactive); in the experiment with OVCAR-5 it was > 100 µM (inactive); in the experiment with SF-539, > 100 µM (inactive); in the experiment with K562, 56.2 µM (inactive).

For `Cc1cc2c([N+](=O)[O-])cc3c(c2o1)C(=O)C=CC3=O`, the GI50 is 6.19 µM (inactive) in the experiment on SN12C; 1.52 µM (inactive) in the experiment with NCI-H522; 14.5 µM (inactive) in the experiment on MDA-N; 19 µM (inactive) in the experiment on HOP-62; 15.2 µM (inactive) in the experiment on UACC-62; 1.72 µM (inactive) in the experiment on HOP-92. Also, the GI50 in the experiment on HCC 2998 was 30.5 µM (inactive); in the experiment with PC-3, 16.4 µM (inactive); in the experiment on LOX IMVI, 6.76 µM (inactive); in the experiment on KM12 it was 16.6 µM (inactive); in the experiment on COLO 205 it was 2.3 µM (inactive); in the experiment with ACHN, 1.89 µM (inactive). For the same compound, the GI50 with OVCAR-3 is 5.64 µM (inactive); with OVCAR-5 it was 20 µM (inactive); with SF-539, 15.1 µM (inactive); in the experiment with K562, 1.79 µM (inactive).

For the compound `CCOC(=O)COc1ccc2c(C)cc(=O)oc2c1`, the GI50 with SN12C, in the experiment with NCI-H522, in the experiment with MDA-N, in the experiment on HOP-62, in the experiment with UACC-62 and in the experiment with HOP-92 was > 100 µM (inactive) each time. Moreover, the GI50 in the experiment on HCC 2998 was 34.4 µM (inactive); in the experiment on PC-3, > 100 µM (inactive); in the experiment on LOX IMVI, > 100 µM (inactive); with KM12, > 100 µM (inactive); in the experiment on COLO 205 it was > 100 µM (inactive); with ACHN it was > 100 µM (inactive). Moreover, the GI50 in the experiment on OVCAR-3, with OVCAR-5, in the experiment on SF-539 and in the experiment with K562 was > 100 µM (inactive) in each case.

For `COC(=O)C1C(O)C(C)C(O)C(C)(O)C=C(C)C2=C3C(=C(C)C(=O)c4c(O)c(c(C)c(OC(C)=O)c43)NC(=O)C(C)=C/C=C\C(C)(O)C(O)C(C)C1O)OCO2` (centres undefined), the GI50 was 94 µM (inactive) in the experiment with SN12C; 88.3 µM (inactive) with NCI-H522; 40.3 µM (inactive) in the experiment with MDA-N; > 100 µM (inactive) in the experiment on HOP-62; 53.8 µM (inactive) in the experiment on UACC-62; 24.7 µM (inactive) in the experiment on HOP-92. In addition, the GI50 in the experiment on HCC 2998 was 57.4 µM (inactive); with PC-3, 32.5 µM (inactive); in the experiment with LOX IMVI, 35.3 µM (inactive); in the experiment with KM12, 80.2 µM (inactive); in the experiment with COLO 205 it was 24.4 µM (inactive); with ACHN, > 100 µM (inactive). The GI50 in the experiment with OVCAR-3 is 25.7 µM (inactive); with OVCAR-5, > 100 µM (inactive); in the experiment with SF-539 it was > 100 µM (inactive); in the experiment on K562, 81.1 µM (inactive).

Turning to `CC(C)(C)OC(=O)C1=C(N)N(Cc2ccccc2)C2(C)C=CC(=O)C=C12` (centres undefined), the GI50 with SN12C was 8.47 µM (inactive); in the experiment on NCI-H522 it was 1.67 µM (inactive); with MDA-N, 4.79 µM (inactive); with HOP-62 it was 16 µM (inactive); with UACC-62 it was 7.93 µM (inactive); with HOP-92, 2.16 µM (inactive). The GI50 in the experiment with HCC 2998 was 14.2 µM (inactive); with PC-3, 7.21 µM (inactive); with LOX IMVI it was 2.34 µM (inactive); with KM12 it was 6.49 µM (inactive); in the experiment with COLO 205 it was 2.3 µM (inactive); in the experiment on ACHN it was 2.47 µM (inactive). Further, the GI50 with OVCAR-3 is 3.1 µM (inactive); in the experiment with OVCAR-5, 18.1 µM (inactive); in the experiment on SF-539 it was 5.3 µM (inactive); in the experiment with K562, 2.74 µM (inactive).

As for `CCc1nc(N)nc(N)c1-c1ccc(NCCc2ccccc2)c([N+](=O)[O-])c1`, the GI50 in the experiment on SN12C is 1.34 µM (inactive); in the experiment with NCI-H522 it was 0.56 µM (active); with MDA-N it was 0.195 µM (active); with HOP-62 it was 1.64 µM (inactive); in the experiment with UACC-62, 0.162 µM (active); with HOP-92, 2.21 µM (inactive). Further, the GI50 in the experiment with HCC 2998 is 0.745 µM (active); with PC-3, 0.272 µM (active); in the experiment on LOX IMVI it was 0.199 µM (active); in the experiment with KM12, 1.33 µM (inactive); in the experiment with COLO 205, 1.11 µM (active); in the experiment on ACHN, 0.353 µM (active). Moreover, the GI50 in the experiment with OVCAR-3 is 1.44 µM (inactive); in the experiment on OVCAR-5, 17.2 µM (inactive); in the experiment on SF-539, 0.741 µM (active); in the experiment with K562, 0.0325 µM (active).
